Laboratory results from article PMC11842024, “Reversible male contraception by targeted inhibition of serine/threonine kinase 33” (Science (New York, N.Y.), 2024).

System: male mice
Assay: Fertility analysis and reversibility in male mice
Format: in vivo
Protocol: On the basis of molecular modeling, mouse and human STK33 have identical ATP binding pockets (fig. S19), consistent with evolutionary conservation and function of STK33. To determine the consequences of STK33 inhibition in vivo, we evaluated reproductive outcomes in male mice dosed with CDD-2807. […] In protocol 1, adult male mice (n = 6 per cohort) were treated with vehicle control or CDD-2807 at 15 mg kg^−1 intraperitoneally twice per day for 21 days, subsequently housed continuously with fertile female mice of reproductive age (two per male), and then evaluated at day 45 for effects of CDD-2807 on the male reproductive tract (after the first litter was born) or continued to be housed with the females until day 66 after the completion of the 60-day breeding data collection (fig. S21A). In protocol 2, adult male mice (n = 7 per cohort) were treated with vehicle control or CDD-2807 at 50 mg kg^−1 once per day for 21 days, subsequently housed continuously with females (two per male), and then evaluated at later time points (fig. S21B). […] In month 2, litters were born to all females housed with the six control males (2.0 ± 0 litters per male; 7.25 ± 0.17 pups per female per litter) (Fig. 4A). By contrast, no litters were produced by females housed with males who received CDD-2807 (Fig. 4A). For protocol 2 mice, all seven control males sired litters from both females in month 1 (7.29 ± 0.18 pups per litter per female), whereas only one female became pregnant and delivered a single pup from the seven CDD-2807–treated males (50 mg kg^−1 day^−1) (0.07 ± 0.07 pups per litter per female) (Fig. 4B). […] Thus, CDD-2807 delivery in both protocols induced a contraceptive effect. […]
Fertility analysis. Sexually mature male C57/129 hybrid mice were randomly assigned to either the vehicle control treatment or the CDD-2807 treatment groups. Drug formulation and injections were as follows: for protocol 1 mice receiving the 15 mg/kg CDD-2807 twice daily dosing had the compound dissolved in DMSO, which was injected at 5% of the final volume in 10% Captisol and water. For protocol 2 mice receiving a single daily dose of 50 mg/kg CDD-2807, the compound was dissolved in DMSO and injected at 5% in 20% Captisol and water. All injections were administered as i.p. injections, and for the 15 mg/kg CDD-2807 and DMSO control mice, the injections were delivered in the morning and the evening. Mice in the 50 mg/kg dosing received i.p. injections once in the evening. Weights were measured daily prior to drug administration and monitored throughout the entirety of the injection period. Injections were given for 21 days prior to introduction of female mice. During the fertility assessment, males were housed continuously with two C57/129 sexually mature females for 45 days to generate approximately two months of fertility data. During the fertility assessment, the total number of pups born per litter sired by each male were counted and the total number of litters and pups sired per male over the entire trial was calculated. Mean pup number and SEM were used to determine differences in average number of […]
fig. S21. Protocol timelines of mouse breeding and reversibility study. (A) Protocol 1 represents the 15 mg/kg twice per day drug dosing of CDD-2807. Samples were collected at euthanasia on day 45 from half of the male mice, allow ing for the completion of the 30-day breeding data to be collected and to give the male mice sufficient time with their female counterparts to initiate the day 60 breeding data. After completion of the entire 60-day breeding data, protocol 1 mice were then “rested” for 21 days prior to measuring their recovery period where they were housed with females to determine fertility. ( B) Protocol 2 represents the 50 mg/kg per day drug dosing of CDD-2807. Samples were collected at euthanasia on day 63 from half of the male mice; this allowed for the entire completion of the initial breeding data prior to collections. […]

SMILES: O=C(c1ccc2[nH]nc(C#Cc3ccccc3-c3ccccc3)c2c1)N1CC2(CCCNC2)C1 [CDD-2807]
- litters per male (protocol 1 (15 mg/kg i.p. twice per day), month 1): 1.0 ± 0.37 litters per male
- pups per female per litter (protocol 1, month 1): 0.92 ± 0.34 pups per female per litter
- treated males that sired litters (protocol 1, month 1): four of the six
- litters produced by females housed with treated males (protocol 1, month 2): no litters
- pups per litter per female after recovery (protocol 1, treatment halted at day 63, 21 days rest, first month of breeding): 7.67 ± 0.61 pups per litter per female
- pups per litter per female (protocol 2 (50 mg/kg/day i.p.), month 1): 0.07 ± 0.07 pups per litter per female
- time to sire first litters after treatment (fertility resumption) (protocol 2, after completion of treatment): 53.5 ± 5.1 days
- litters sired (protocol 2, month 2): did not sire any litters
